Data reported in publication PMC7693160 (Pharmaceutics, 2020).
Several values for one entry are separate records, joined by “and”; a condition that tells them apart may be missing. Identical values can stand only once. Like-named read-outs stand apart in the source and are kept apart here. Marks after values point to notes of the source that are not given here.

Key:
CYP2C9 2*/2* = conditions: Recombinant CYP (fu,mic = 1), cited from earlier work
UGT1A9 = conditions: Recombinant UGT; cited from earlier work
CYP2C9 = conditions: cited from earlier work
UGT2B7 = conditions: Recombinant UGT; cited from earlier work
[1] = parameters: method as in earlier work; conditions: 55 (55, 60); cited from earlier work
[2] = In vitro dissolution, USP II paddle apparatus; assay type: physicochemical
Procedure: All dissolution tests were performed using a calibrated USP II (paddle) apparatus (Erweka DT 80, Heusenstamm, Germany) at 37 ± 0.4 °C. Each vessel contained 500 mL of fresh, pre-warmed medium and the rotational speed was set at 75 rpm. Samples were withdrawn at 2.5, 5, 10, 15, 20, 30, 45, 60, 90, and 120 min via a 5 mL glass syringe connected to a stainless-steel cannula containing a 10 μm polyethylene cannula filter. Immediately thereafter, the sample was filtered through a 0.45 μm PTFE filter (ReZist 30, GE Healthcare UK Ltd., Buckinghamshire, United Kingdom), discarding the first 2 mL. The filtrate was immediately diluted with mobile phase and analyzed by HPLC-UV (see Section 2.5). The removal of 5 mL at each sampling time was considered in the calculation of the percentage dissolved. All experiments were performed at least in triplicate (n ≥ 3) and the final pH in the vessel was recorded.
Samples obtained from solubility and dissolution experiments were first filtered through a 0.45 μm PTFE filter (ReZist 30 syringe filter or Uniprep; Whatman, Piscataway, NJ, USA) and subsequently, after appropriate dilution with mobile phase, analyzed by HPLC-UV (Hitachi Chromaster; Hitachi Ltd., Tokyo, Japan or Spectra System HPLC, ThermoQuest Inc., San Jose, CA, USA). A BDS Hypersil C18, 5 μm, 150 × 4.6 mm (Thermo Scientific, Waltham, MA, United States) analytical column combined with a pre-column (BDS Hypersil C-18, 3μm, 10 × 4mm) was used. The mobile phase consisted of water adjusted to pH = 3.0 with trifluoroacetic acid (TFA) and acetonitrile (49.5:0.5:50% v/v). The detection wavelength was set at 247 nm, the flow rate at 1.0 mL/min, and the injection volume at 20 μL. Using this method, the retention time was approximately 6.8 min. The limit of detection (LOD) and quantification (LOQ) were 0.03 and 0.05 μg/mL, respectively.

Caco-2 cells = conditions: cited from earlier work
[3] = cited from earlier work
[4] = FLU po 50 mg s.d. + fluconazole po 200 mg q.d. x7, interval 2 h, CYP2C9 1*/1*, median
[5] = FLU po 50 mg s.d. + fluconazole po 200 mg q.d. x7, interval 2 h, CYP2C9 1*/3*
[6] = FLU po 50 mg s.d. + fluconazole po 200 mg q.d. x7, interval 2 h, CYP2C9 3*/3*, individual values (n=2)
[7] = FLU po 50 mg s.d. + fluconazole po 400 mg q.d. x7, interval 2 h, CYP2C9 1*/1*
[8] = FLU po 50 mg s.d. + fluconazole po 400 mg q.d. x7, interval 2 h, CYP2C9 1*/3*
[9] = FLU po 50 mg s.d. + fluconazole po 400 mg q.d. x7, interval 2 h, CYP2C9 3*/3*, individual values (n=2)
[10] = FLU po 50 mg s.d. + fluconazole po 400 mg q.d. x7, interval 2 h
[11] = FLU po 50 mg s.d. + fluconazole po 400 mg s.d., interval 2 h, ref 47
[12] = FLU po 50 mg s.d. + fluconazole po 400 mg s.d., interval 2 h, ref 48
[13] = FLU po 50 mg s.d. + rifampicin po 600 mg q.d. x5, interval 0 h, ref Daali et al.
[14] = FLU po 100 mg s.d. + fluconazole po 200 mg b.i.d. x2, interval 0.5 h, geometric mean, ref 44
[15] = FLU po 100 mg s.d. + fluconazole po 200 mg b.i.d. x2, interval 0.5 h, geometric mean, ref 45
[16] = FLU po 100 mg s.d. + fluconazole po 200 mg b.i.d. x2, interval 0.5 h, ref 46

For `CC(C(=O)O)c1ccc(-c2ccccc2)c(F)c1` (centres unmarked) [flurbiprofen], the “CYP2C9 2*/2*-Vmax” value (CYP2C9 2*/2*) is given as 10.04 pmol/min/pmol CYP, the Km (CYP2C9 2*/2*; read-out: CYP2C9 2*/2*-Km) is given as 10.4 µM and the Km (UGT1A9) is given as 182 µM. For the same molecule, the UGT1A9-Vmax (UGT1A9) was 3.286 pmol/min/mg protein, the “DDI AUC Ratio obs” value (CYP2C9; [4]) was 2.02 ^a and the “DDI CL/F Ratio obs” value (CYP2C9; [4]) was 0.5 ^a. For the same molecule, the “DDI Cmax Ratio obs” value (CYP2C9; [4]) was 1.03 ^a, the “DDI AUC Ratio obs” value (CYP2C9; [5]) was 1.8 and the “DDI CL/F Ratio obs” value (CYP2C9; [5]) was 0.56. The “DDI Cmax Ratio obs” value (CYP2C9; [5]) was 0.87, the “DDI AUC Ratio obs” value (CYP2C9; [6]) was 1.58 and 1.28 and the “DDI CL/F Ratio obs” value (CYP2C9; [6]) was 0.75 and 0.66. For the same molecule, the “DDI Cmax Ratio obs” value (CYP2C9; [6]) was 1.08 and 0.91, the “DDI AUC Ratio obs” value (CYP2C9; [7]) was 3.03 and the “DDI CL/F Ratio obs” value (CYP2C9; [7]) was 0.31. The “DDI Cmax Ratio obs” value (CYP2C9; [7]) was 0.99, the “DDI AUC Ratio obs” value (CYP2C9; [8]) was 2.48 and the “DDI CL/F Ratio obs” value (CYP2C9; [8]) was 0.44. For the same molecule, the “DDI Cmax Ratio obs” value (CYP2C9; [8]) was 0.94, the “DDI AUC Ratio obs” value (CYP2C9; [9]) was 1.39 and 1.12 and the “DDI CL/F Ratio obs” value (CYP2C9; [9]) was 1.00 and 0.66. For the same molecule, the “DDI Cmax Ratio obs” value (CYP2C9; [9]) was 0.54 and 0.90, the “DDI AUC Ratio obs” value (CYP2C9; [10]) was 2.81 and the “DDI CL/F Ratio obs” value (CYP2C9; [10]) was 0.35. The “DDI Cmax Ratio obs” value (CYP2C9; [10]) was 1.37, the “DDI AUC Ratio obs” value (CYP2C9; [11]) was 2.16 and the “DDI CL/F Ratio obs” value (CYP2C9; [11]) was 0.46. For the same molecule, the “DDI Cmax Ratio obs” value (CYP2C9; [11]) was 1.24, the “DDI AUC Ratio obs” value (CYP2C9; [12]) was 1.21 and the “DDI CL/F Ratio obs” value (CYP2C9; [12]) was 0.67. The “DDI Cmax Ratio obs” value (CYP2C9; [12]) was 1.14, the “DDI AUC Ratio obs” value (CYP2C9; [13]) was 0.56 and the “DDI CL/F Ratio obs” value (CYP2C9; [13]) was 1.85. For the same molecule, the “DDI Cmax Ratio obs” value (CYP2C9; [13]) was 0.71, the “DDI AUC Ratio obs” value (CYP2C9; [14]) was 1.97 ^b and the “DDI Cmax Ratio obs” value (CYP2C9; [14]) was 1.47 ^b. The “DDI AUC Ratio obs” value (CYP2C9; [15]) was 1.71 ^b, the “DDI Cmax Ratio obs” value (CYP2C9; [15]) was 1.16 ^b and the “DDI CL/F Ratio obs” value (CYP2C9; FLU po 100 mg s.d. + fluconazole po 200 mg b.i.d. x2, interval 0.5 h, ref 44) was 0.5. The “DDI CL/F Ratio obs” value (CYP2C9; FLU po 100 mg s.d. + fluconazole po 200 mg b.i.d. x2, interval 0.5 h, ref 45) was 0.57, the “DDI AUC Ratio obs” value (CYP2C9; [16]) was 1.81 and the “DDI CL/F Ratio obs” value (CYP2C9; [16]) was 0.55. The “DDI Cmax Ratio obs” value (CYP2C9; [16]) was 1.23, the Km (UGT2B7) was 50.2 µM and the UGT2B7-Vmax (UGT2B7) was 119.7 pmol/min/mg protein. For the same molecule, the “logPo:w” value [1] was 3.99, the maximum dissolved ([2]; FaSSGF Level I, 100 mg) was 5.5% and the “plateau of in vitro release” value ([2]; FaSSGF Levels I and III, 100 mg) was “around 8.3 % of the dose”. For the same molecule, the “time to 85% dissolved” value ([2]; FaSSIF V3 Level I (without bile components)) was 60 min, the “time to >85% dissolved” value ([2]; FaSSIF V3 Level II) was at most 2.5 min and the “time to >85% dissolved” value ([2]; Ph. Eur. phosphate buffer (pH 6.8)) was at most 15 min. The “Papp, Caco-2” value (Caco-2 cells) was 20.1 ×10⁻⁶ cm/s, the Blood/plasma ratio [3] was 0.55 and the “Fraction unbound in plasma” value [3] was 0.01. The “bound to plasma proteins” value [3] was over 99% and the “CYP2C9 1*/3*-Vmax” value (CYP2C9 1*/3*) was 9.55 pmol/min/pmol CYP.
